This passage reports EC50 and IC50 results from US9714247B2, “Multiple kinase pathway inhibitors” (Mannkind Corporation, priority 2012, dated 2017).

One test concerns DoHH2. The experiment in a line: CellTiter-Glo proliferation/viability assay. As to conditions: Homo sapiens, DOHH-2; 48 hrs; read-out: DoHH2 EC50. The class given is cell-based, human.
A further test concerns Ramos. The experiment in a line: CellTiter-Glo proliferation/viability assay. The class given is cell-based, human. As to conditions: Homo sapiens, Ramos, read-out: Ramos EC50. (ATP-based viability assays read luminescence as a measure of living cells.)
Another test concerns the target Src (Homo sapiens (Human), UniProt P12931). The test can be described thus: biochemical.
The target in a further test is Lyn (Homo sapiens (Human), UniProt P07948). The test can be described thus: biochemical.
Sequence of Lyn (P07948 whole entry): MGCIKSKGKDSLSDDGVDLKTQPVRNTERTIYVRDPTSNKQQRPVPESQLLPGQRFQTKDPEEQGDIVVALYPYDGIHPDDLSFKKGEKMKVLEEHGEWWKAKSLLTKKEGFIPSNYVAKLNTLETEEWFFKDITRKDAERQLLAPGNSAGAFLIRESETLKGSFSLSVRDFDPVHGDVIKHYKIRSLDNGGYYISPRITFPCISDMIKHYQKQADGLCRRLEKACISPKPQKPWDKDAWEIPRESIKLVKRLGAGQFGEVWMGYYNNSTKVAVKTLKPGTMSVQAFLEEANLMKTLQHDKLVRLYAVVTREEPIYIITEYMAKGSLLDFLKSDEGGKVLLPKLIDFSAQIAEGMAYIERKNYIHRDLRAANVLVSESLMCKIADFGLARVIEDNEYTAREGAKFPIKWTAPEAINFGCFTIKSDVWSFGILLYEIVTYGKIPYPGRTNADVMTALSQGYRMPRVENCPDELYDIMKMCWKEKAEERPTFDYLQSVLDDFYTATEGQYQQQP
For a further test, the target named is BTK (Homo sapiens (Human), UniProt Q06187).
Sequence of BTK (Q06187 whole entry): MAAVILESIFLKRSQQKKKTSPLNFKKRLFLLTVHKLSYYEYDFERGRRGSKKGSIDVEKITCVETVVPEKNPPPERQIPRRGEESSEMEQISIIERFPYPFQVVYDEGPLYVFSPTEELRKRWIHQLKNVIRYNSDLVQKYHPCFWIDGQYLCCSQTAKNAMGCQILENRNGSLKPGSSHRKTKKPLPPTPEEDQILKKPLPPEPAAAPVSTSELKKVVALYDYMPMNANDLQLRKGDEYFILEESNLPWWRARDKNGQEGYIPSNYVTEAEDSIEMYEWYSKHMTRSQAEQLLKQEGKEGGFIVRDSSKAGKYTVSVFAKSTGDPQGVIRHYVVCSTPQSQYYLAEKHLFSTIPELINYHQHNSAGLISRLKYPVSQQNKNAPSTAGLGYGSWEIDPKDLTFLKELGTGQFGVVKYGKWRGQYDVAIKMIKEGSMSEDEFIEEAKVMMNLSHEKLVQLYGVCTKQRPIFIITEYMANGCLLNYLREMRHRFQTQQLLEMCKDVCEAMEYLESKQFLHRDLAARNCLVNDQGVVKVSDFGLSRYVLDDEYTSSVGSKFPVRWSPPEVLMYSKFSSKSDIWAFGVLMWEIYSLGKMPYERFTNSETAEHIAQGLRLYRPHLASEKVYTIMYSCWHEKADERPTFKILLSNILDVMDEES

SMILES strings stand for the structures. Read-outs that look alike come from different tables or passages of the source. A value given as a limit tells only on which side of the number the result lay.

Sequence of Src (P12931 whole entry, looked up): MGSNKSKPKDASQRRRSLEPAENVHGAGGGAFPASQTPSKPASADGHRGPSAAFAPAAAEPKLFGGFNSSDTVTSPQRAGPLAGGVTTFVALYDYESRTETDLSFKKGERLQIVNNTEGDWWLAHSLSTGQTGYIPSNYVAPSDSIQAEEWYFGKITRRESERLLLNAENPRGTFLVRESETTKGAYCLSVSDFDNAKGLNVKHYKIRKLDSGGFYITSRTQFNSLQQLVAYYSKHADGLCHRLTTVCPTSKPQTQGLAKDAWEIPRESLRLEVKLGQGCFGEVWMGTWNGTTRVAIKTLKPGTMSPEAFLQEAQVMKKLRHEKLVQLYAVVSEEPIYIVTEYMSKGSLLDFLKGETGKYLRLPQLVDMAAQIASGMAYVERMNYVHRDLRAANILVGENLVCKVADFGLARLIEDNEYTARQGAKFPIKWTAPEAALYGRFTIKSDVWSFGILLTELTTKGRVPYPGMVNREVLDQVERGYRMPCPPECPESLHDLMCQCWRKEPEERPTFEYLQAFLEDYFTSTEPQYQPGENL

A word on the EC50: it is the midpoint of the concentration-response curve. Broadly, the IC50 is the point on the concentration scale where inhibition reaches its midpoint. For `CCn1c(=O)c(-c2ccccc2)cc2cnc(Nc3ccccn3)cc21` [Compound 7, 1-Ethyl-3-phenyl-7-(pyridin-2-ylamino)-1H-[1,6]naphthyridin-2-one], the EC50 in the test with DoHH2 was 1000 to 10000 nM; in the test on Ramos (48 h) it was > 10000 nM. The IC50 on Src lay within 100 to 1000 nM; against Lyn, 1000 to 5000 nM; on BTK, 100 to 1000 nM.

On to `CCN(CC)CCOc1ccc(Nc2cc3[nH]c(=O)c(-c4ccccc4)cc3cn2)nc1` [Compound 14, 7-[5-(2-Diethylamino-ethoxy)-pyridin-2-ylamino]-3-phenyl-1H-[1,6]naphthyridin-2-one], for which the EC50 is 1000 to 10000 nM with DoHH2 and > 10000 nM in the test with Ramos (48 hrs). For the same molecule, the IC50 on Src is 100 to 1000 nM; at Lyn it was 100 to 1000 nM; on BTK (read-out: BTK IC50) it was < 100 nM.

On to `CCn1c(=O)c(C2CC2)cc2cnc(Nc3ccc(C)cn3)cc21` [Compound 30, 3-Cyclopropyl-1-ethyl-7-(5-methyl-pyridin-2-ylamino)-1H-[1,6]naphthaayridin-2-one], for which the EC50 with DoHH2 and in the test with Ramos (48 h) was 1000 to 10000 nM throughout. In addition, the figures for the IC50 against Src, at Lyn and on BTK (read-out: BTK IC50) were 100 to 1000 nM, 1000 to 5000 nM and > 5000 nM, respectively.

`CCn1c(=O)c(-c2ccccc2)cc2cnc(Nc3ccc(N4CCOCC4)cn3)cc21` [Compound 44, 1-Ethyl-7-(5-morpholin-4-yl-pyridin-2-ylamino)-3-phenyl-1H-[1,6]naphthyridin-2-one]: the EC50 is < 1000 nM with DoHH2 and 1000 to 10000 nM with Ramos (48 hrs). For the same molecule, the IC50 against Src is 100 to 1000 nM; against Lyn, 100 to 1000 nM; on BTK (read-out: BTK IC50), > 5000 nM.

On to `CCn1c(=O)c(-c2ccccc2)cc2cnc(Nc3ccc(OCCN(C)C)cn3)cc21` [Compound 48, 7-[5-(2-Dimethylamino-ethoxy)-pyridin-2-ylamino]-1-ethyl-3-phenyl-1H-[1,6]naphthyridin-2-one], for which the EC50 in the test on DoHH2 is 1000 to 10000 nM; with Ramos (48 hrs), > 10000 nM. In addition, the IC50 against Src fell in the range of 1000 to 5000 nM; against Lyn, 100 to 1000 nM; on BTK it was 1000 to 5000 nM.

With `CCN(CC)CCOc1ccc(Nc2cc3[nH]c(=O)c(C(C)C)cc3cn2)nc1` [Compound 49, 7-(5-(2-(diethylamino)ethoxy)pyridin-2-ylamino)-3-isopropyl-1,6-naphthyridin-2(1H)-one], the values for the EC50 in the test on DoHH2 and in the test with Ramos (48 h) were 1000 to 10000 nM and > 10000 nM, respectively. The half-inhibitory concentration (IC50) at Src lay within 100 to 1000 nM; against Lyn it was 100 to 1000 nM; against BTK, 1000 to 5000 nM.

As to `CCn1c(=O)c(-c2ccccc2)cc2cnc(Nc3ccc(OC)cn3)cc21` [Compound 51, 1-Ethyl-7-(5-methoxy-pyridin-2-ylamino)-3-phenyl-1H-[1,6]naphthayridin-2-one], the EC50 in the test with DoHH2 is 1000 to 10000 nM; in the test with Ramos (48 hrs), > 10000 nM. The IC50 against Src lay in the range of 100 to 1000 nM; against Lyn, 100 to 1000 nM; on BTK, 1000 to 5000 nM.

Turning to `CCn1c(=O)c(C#CCO)cc2cnc(Nc3ccc(C)cn3)cc21` [Compound 53], the EC50 in the test with DoHH2 and with Ramos (48 hrs) was 1000 to 10000 nM each time. The results for the IC50 at Src, against Lyn and at BTK (read-out: BTK IC50) were 100 to 1000 nM, 1000 to 5000 nM and > 5000 nM, respectively.

Take `CCn1c(=O)c(C#CC(C)(C)O)cc2cnc(Nc3ccc(C)cn3)cc21` [Compound 54]: the EC50 is 1000 to 10000 nM in the test with DoHH2 and > 10000 nM in the test with Ramos (48 hrs). The concentration for half-maximal inhibition (IC50) at Src fell in the range of 100 to 1000 nM; on Lyn it was 100 to 1000 nM; at BTK, 1000 to 5000 nM.

Consider `CCN(CC)CCOc1ccc(Nc2cc3c(cn2)cc(-c2ccccc2)c(=O)n3C2CCN(C)C2)nc1` (stereo not shown) [Compound 58, 7-((5-(2-(diethylamino)ethoxy)pyridin-2-yl)amino)-1-(1-methylpyrrolidin-3-yl)-3-phenyl-1,6-naphthyridin-2(1H)-one], for which the EC50 in the test with DoHH2 is 1000 to 10000 nM; in the test with Ramos (48 h), > 10000 nM. Moreover, the values for the IC50 against Src, at Lyn (Lyn IC50) and against BTK were 100 to 1000 nM, 100 to 1000 nM and 1000 to 5000 nM, respectively.

For `CCn1c(=O)c(-c2ccccc2)cc2cnc(Nc3ccncn3)cc21` [Compound 60, 1-Ethyl-3-phenyl-7-(pyrimidin-4-ylamino)-1H-[1,6]naphthyridin-2-one], the EC50 with DoHH2 is 1000 to 10000 nM; with Ramos (48 h), > 10000 nM. In addition, the IC50 on Src was in the range of 100 to 1000 nM; against Lyn, 1000 to 5000 nM; at BTK, 100 to 1000 nM.

On to `CCn1c(=O)c(-c2ccccc2)cc2cnc(Nc3ccc(OC)nn3)cc21` [Compound 61, 1-Ethyl-7-(6-methoxy-pyridazin-3-ylamino)-3-phenyl-1H-[1,6]naphthyridin-2-one], for which the EC50 with DoHH2 was < 1000 nM; in the test with Ramos (48 hrs) it was 1000 to 10000 nM. The IC50 was in the range of 100 to 1000 nM at Src, 1000 to 5000 nM against Lyn and 1000 to 5000 nM against BTK.

Consider `CCn1c(=O)c(-c2ccccc2)cc2cnc(Nc3ccnc(OC)n3)cc21` [Compound 62, 1-Ethyl-7-(2-methoxy-pyrimidin-4-ylamino)-3-phenyl-1H-[1,6]naphthyridin-2-one], for which the results for the EC50 in the test with DoHH2 and with Ramos (48 h) were < 1000 nM and 1000 to 10000 nM, respectively. Also, the IC50 against Src is 100 to 1000 nM; against Lyn (Lyn IC50) it was 1000 to 5000 nM; at BTK, 1000 to 5000 nM.

Consider `CCn1c(=O)c(-c2ccccc2)cc2cnc(Nc3ccc(N(C)C)cn3)cc21` [Compound 64, 7-(5-Dimethylamino-pyridin-2-ylamino)-1-ethyl-3-phenyl-1H-[1,6]naphthyridin-2-one], for which the values for the EC50 with DoHH2 and in the test with Ramos (48 hrs) were < 1000 nM and > 10000 nM, respectively. Besides, the IC50 was in the range of 100 to 1000 nM against Src, 100 to 1000 nM against Lyn and 1000 to 5000 nM against BTK.

Regarding `CCN(CC)CCOc1ccc(Nc2cc3c(cn2)cc(-c2ccccc2)c(=O)n3CC2CCN(C)C2)nc1` (stereo not shown) [Compound 65, 7-((5-(2-(diethylamino)ethoxy)pyridin-2-yl)amino)-1-((1-methylpyrrolidin-3-yl)methyl)-3-phenyl-1,6-naphthyridin-2(1H)-one], the concentration giving a half-maximal response (EC50) was < 1000 nM in the test on DoHH2 and > 10000 nM in the test with Ramos (48 h). Besides, the IC50 is 100 to 1000 nM at Src, 1000 to 5000 nM against Lyn (Lyn IC50) and > 5000 nM at BTK (read-out: BTK IC50).

Take `CCN(CC)CCOc1ccc(Nc2cc3c(cn2)cc(-c2ccccc2)c(=O)n3-c2cccnc2)nc1` [Compound 84, 7-[5-(2-Diethylamino-ethoxy)-pyridin-2-ylamino]-3-phenyl-1-pyridin-3-yl-1H-[1,6]naphthyridin-2-one]: the EC50 was 1000 to 10000 nM in the test on DoHH2 and > 10000 nM with Ramos (48 hrs). Also, the results for the IC50 against Src, against Lyn and at BTK were 100 to 1000 nM, 1000 to 5000 nM and 100 to 1000 nM, respectively.

Regarding `CCN(CC)CCOc1ccc(Nc2cc3c(cn2)cc(-c2ccccn2)c(=O)n3CC)nc1` [Compound 102, 7-((5-(2-(diethylamino)ethoxy)pyridin-2-yl)amino)-1-ethyl-3-(pyridin-2-yl)-1,6-naphthyridin-2(1H)-one], the EC50 in the test with DoHH2 was 1000 to 10000 nM; in the test with Ramos (48 h) it was > 10000 nM. Moreover, the figures for the IC50 against Src, against Lyn (Lyn IC50) and at BTK (read-out: BTK IC50) were 100 to 1000 nM, 100 to 1000 nM and > 5000 nM, respectively.

Take `CCN(CC)CCOc1ccc(Nc2cc3c(cn2)cc(-c2ccc(SC)cc2)c(=O)n3CC)nc1` [Compound 104, 7-((5-(2-(diethylamino)ethoxy)pyridin-2-yl)amino)-1-ethyl-3-(4-(methylthio)phenyl)-1,6-naphthyridin-2(1H)-one]: the EC50 with DoHH2 and with Ramos (48 h) was 1000 to 10000 nM in each case. Also, the IC50 is 100 to 1000 nM on Src, 100 to 1000 nM at Lyn and > 5000 nM at BTK (read-out: BTK IC50).

As for `CCn1c(=O)c(-c2ccccc2)cc2cnc(Nc3ccc(CN4CCNCC4)cn3)cc21` [Compound 110, 1-ethyl-3-phenyl-7-((5-(piperazin-1-ylmethyl)pyridin-2-yl)amino)-1,6-naphthyridin-2(1H)-one], the EC50 was < 1000 nM in the test on DoHH2 and 1000 to 10000 nM in the test on Ramos (48 hrs). The IC50 on Src is 100 to 1000 nM; at Lyn it was 100 to 1000 nM; on BTK (read-out: BTK IC50) it was < 100 nM.

For `CCn1c(=O)c(-c2ccccc2)cc2cnc(Nc3ccc(CN4CCN(S(C)(=O)=O)CC4)cn3)cc21` [Compound 111, 1-ethyl-7-((5-((4-(methylsulfonyl)piperazin-1-yl)methyl)pyridin-2-yl)amino)-3-phenyl-1,6-naphthyridin-2(1H)-one], the results for the EC50 with DoHH2 and with Ramos (48 hrs) were < 1000 nM and 1000 to 10000 nM, respectively. The IC50 is 100 to 1000 nM against Src, 100 to 1000 nM against Lyn and < 100 nM on BTK (read-out: BTK IC50).

`CCn1c(=O)c(-c2ccccc2)cc2cnc(Nc3cn(C)cn3)cc21` [Compound 113, 1-ethyl-7-((1-methyl-1H-imidazol-4-yl)amino)-3-phenyl-1,6-naphthyridin-2(1H)-one]: the EC50 with DoHH2 and with Ramos (48 h) was > 10000 nM throughout. The IC50 is 100 to 1000 nM against Src, 100 to 1000 nM against Lyn and 1000 to 5000 nM against BTK.

`CCn1c(=O)c(-c2ccccc2)cc2cnc(Nc3cn(CCOC)cn3)cc21` [Compound 114, 1-ethyl-7-((1-(2-methoxyethyl)-1H-imidazol-4-yl)amino)-3-phenyl-1,6-naphthyridin-2(1H)-one]: the EC50 is 1000 to 10000 nM in the test with DoHH2 and > 10000 nM with Ramos (48 h). Also, the IC50 against Src was 100 to 1000 nM; at Lyn, 1000 to 5000 nM; at BTK (read-out: BTK IC50), < 100 nM.

Regarding `CCn1c(=O)c(-c2cc([S+](C)[O-])ccc2F)cc2cnc(Nc3ccc(N(C)C4CCN(C)CC4)cn3)cc21` (stereo not shown) [Compound 117, 1-ethyl-3-(2-fluoro-5-(methylsulfinyl)phenyl)-7-((5-(methyl(1-methylpiperidin-4-yl)amino)pyridin-2-yl)amino)-1,6-naphthyridin-2(1H)-one], the EC50 with DoHH2 is 1000 to 10000 nM; with Ramos (48 h) it was > 10000 nM. Besides, the IC50 was 100 to 1000 nM against Src, < 100 nM against Lyn and 100 to 1000 nM against BTK.
